Measured values reported in patent US20220274983A1, “JAK KINASE INHIBITOR AND USE THEREOF” (JIANGSU CAREPHAR PHARMACEUTICAL CO., LTD., priority 2019, published 2022).
Structures can show the parent of a compound that is named as a salt.

Tests used:
rat CIA model [1] = assay: Hindfoot foot volume in rat CIA model; type: in vivo, Lewis rats; conditions: CIA rats, hindfoot, 2 mg/kg oral gavage once daily for 2 w
Experimental: (§1) Lewis rats (female, 10-12 weeks old) were obtained from Beijing Vital River Laboratory Animal Technology Co., Ltd. The rats were on a light and dark alternation for 12 h, and the environment was kept at a temperature of 23±2° C. and a humidity of 40-70%.
(§2) Type II collagen solution (2 mg/mL) was prepared with 0.05 M acetic acid solution to allow to be fully dissolved, and placed overnight in the dark at 4° C. During the test, 2 mg/mL type II collagen (C II) solution and 4 mg/mL complete Freund's adjuvant (CFA) solution were mixed in equal volumes under ice bath conditions to fully emulsify. On day 0, an emulsion prepared by mixing equal volumes of C II (2 mg/mL) and CFA (4 mg/mL) was injected intracutaneously into the base of the tail of experimental rats for primary immunization, and on day 7, secondary booster immunization was performed.
(§3) The therapeutic effect of the test compound was tested in a rat CIA model. The rats were randomly divided into groups with 8 animals in each group. All animals were immunized on day 0 and boosted on day 7.
(§4) Therefore, the differences in body weight and foot volume after the onset of arthritis compared with the negative group, respectively, can be used to evaluate the therapeutic effect in the rat model. The experimental data were expressed as Mean±SEM; the data between the two groups was tested by unpaired t-test and p<0.05 was considered as a significant difference.

rat CIA model [2] = assay: Arthritis index (AI) of extremities in rat CIA model; conditions: CIA rats, 2 mg/kg oral gavage once daily for 2 w, score 0-16;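 also: rats immunized with type II collagen plus complete Freund's adjuvant on day 0, boosted day 7, groups of 8, each paw graded 0-4 for swelling or redness, higher means worse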
Experimental: as §1, §2, §3
Foot volume was scored for the swelling of four toes at the same time, the score for each foot was 0-4, and the highest score for each rat was 16. 0—no swelling, normal appearance; 1—mild swelling or redness of the ankle joint, wrist joint or finger joint; 2—moderate swelling or redness of the ankle joint, wrist joint or finger joint; 3—severe swelling or redness of the ankle joint, wrist joint or finger joint; 4—very severe swelling or redness of the ankle joint, wrist joint or finger joint.

[3] = rat, in vivo, 2 mg/kg
Experimental: as §1, §2, §3, §4

Compound: C[C@@H]1CCN(C(=O)CC#N)C[C@@H]1N(C)c1ncnc2[nH]ccc12 [Tofacitinib, tofacitinib citrate, reference compound]
- Foot volume (ml)/Day (rat CIA model [1]; day 0): 2.637 ± 0.020 mL
- Foot volume (ml)/Day (rat CIA model [1]; day 8): 2.619 ± 0.019 mL
- Foot volume (ml)/Day (rat CIA model [1]; day 11): 2.646 ± 0.045 mL
- Foot volume (ml)/Day (rat CIA model [1]; day 14): 3.848 ± 0.333 mL
- Foot volume (ml)/Day (rat CIA model [1]; day 17): 4.636 ± 0.306 mL
- Foot volume (ml)/Day (rat CIA model [1]; day 21): 4.710 mL
- Foot volume (ml)/Day (rat CIA model [1]; day 24): 4.509 mL
- Foot volume (ml)/Day (rat CIA model [1]; day 28): 4.125 mL
- Arthritis index/Day (rat CIA model [2]; day 0): 0 ± 0
- Arthritis index/Day (rat CIA model [2]; day 8): 0 ± 0
- Arthritis index/Day (rat CIA model [2]; day 11): 0.63 ± 0.32
- Arthritis index/Day (rat CIA model [2]; day 14): 3.75 ± 0.77
- Arthritis index/Day (rat CIA model [2]; day 17): 5.25 ± 0.62
- Arthritis index/Day (rat CIA model [2]; day 21): 8.75 ± 0.59
- Arthritis index/Day (rat CIA model [2]; day 24): 8.75 ± 0.73
- Arthritis index/Day (rat CIA model [2]; day 28): 7.88 ± 0.58
- body weight course, in words [3]: increased slightly on days 11-17, but then fell back
